Measured values reported in patent US12435060B2, “Acylamino bridged heterocyclic compound, and composition and application thereof” (BEIJING SCITECH-MQ PHARMACEUTICALS LIMITED, priority 2019, dated 2025).

Tested on: HT29 cells
Assay: Inhibition of cell necrosis (CCK8 method), induced programmed necrosis of HT29 cells
Assay type: cell-based
Conditions: Homo sapiens, HT-29; rescue from necrosis induced by TNF-α 20 ng/mL, AT-406 1 μM, Z-VAD-FMK 20 μM; 16-20 hours; CCK-8, OD 450 nm
Method: Assay Example 2. Assay Method for Compounds Inhibiting Cell Necrosis (CCK8 Method)
In this assay example 2, under the condition of inducing programmed cell necrosis, different concentrations of the test compounds were added to test the IC50 of the rescue effect of the test compounds on the programmed necrosis.
• Compounds: Dissolved in DMSO to make a 10 mM solution; • TNF-α: The initial concentration was 100 μg/mL; • Z-VAD-FMK: Dissolved in DMSO to make a 10 mM solution; • AT-406: Dissolved in DMSO to make a 10 mM solution. I. Experimental Steps • 1) Compound dilution: All test compounds were dissolved in DMSO to prepare a 10 mM stock solution, and the first concentration gradient dilution of the test compounds was completed in DMSO. The gradient dilution factor was 4 times and 9 concentration gradients were made; A 40-fold overall dilution of all compounds was completed in the cell culture medium, and the resulting compound was 10× compound, which will be added to the wells of the 96-well plate containing cells, so that the final cell culture medium was 1× the designed final concentration. The general drug design is 9 concentration gradients, of which the highest final concentration is 25000 nM, the lowest concentration after 4-fold dilution of 9 concentrations is 0.38 nM, and the final concentration of DMSO in all wells is 0.25%. The compound dilution process is shown in FIG. 3. • 2) HT 29 cells in good growth condition were selected, trypsinized, the cells was collected by centrifugation, resuspended in McCOY's 5A complete medium (containing 10% FBS) and counted, and the number of cells and survival rate were recorded. • 3) Cells were inoculated to the 60 wells in the middle of the 96-well culture plate at a density of 12000 cells/80 μL/well, surrounding wells were filled with sterile water, and incubated overnight. • 4) 10 μL of the 10× compound diluted with the medium was added to the assay wells, 10 μL of McCOY's 5A complete medium containing 2.5% DMSO was added to the inducer-free wells and the control wells, mixed and shaked, and incubated for 30 minutes. • 5) Then 10 μL of inducer mixture (TNF-α, AT-406, Z-VAD-FMK with the final concentration of 20 ng/mL, 1 μM, 20 μM) was added into the assay wells and control wells. 10 μL McCOY's 5A complete medium was added to wells without inducer. Cells were cultured in an incubator with 5% CO2, at 37° C. • 6) After culturing for 16-20 hours, 10 μL of CCK-8 reagent was added to each well, and incubated for about 2 hours; • 7) The OD value was read at 450 nm on the multi-function plate reader. • 8) Data processing: Inhibition rate of necrosis (%)=100*(X−B)/(A−B) • A: The OD values of the wells without inducer (containing cells, CCK-8, without compound and inducer); • […]: OD values of assay wells (containing cells, CCK-8, compound, inducer); • B: OD values of control wells (containing cells, CCK-8, inducer, without compound). Then the value were imported into Graphpad Prism5 software for curve fitting and the IC50 values were calculated.

SMILES	IC50 [nM]
COc1ccc(Cc2nnc(C(=O)Nc3cc(-c4cc(OCCCC(C)(C)O)ccc4C)ccn3)[nH]2)cc1 [Example 190, 5-(4-methoxybenzyl)-N-(4-(5-((4-hydroxy-4-methylpentyl)oxy)-2-methylphenyl)pyridin-2-yl)-4H-1,2,4-triazole-3-carboxamide]	100 to 1000
Cc1ccc(NC(=O)CCC(C)(C)O)cc1-c1ccnc(NC(=O)c2nnc(Cc3ccccc3)[nH]2)c1 [Example 489, 5-benzyl-N-(4-(5-(4-hydroxy-4-methylvaleramido)-2-methylphenyl)pyridin-2-yl)-4H-1,2,4-triazole-3-carboxamide]	100 to 1000
Cc1ccc(OCCN2CCCC2=O)cc1-c1ccnc(NC(=O)c2nnc(Cc3ccccc3)[nH]2)c1 [Example 71, 5-benzyl-N-(4-(2-methyl-5-(2-(2-oxopyrrolidin-1-yl)ethoxy)phenyl)pyridin-2-yl)-4H-1,2,4-triazole-3-carboxamide]	≤ 100
Cc1c(F)cc(OCCCC(C)(C)O)cc1-c1ccnc(NC(=O)c2nnc(Cc3ccccc3F)[nH]2)c1 [Example 236, 5-(2-fluorobenzyl)-N-(4-(3-fluoro-5-((4-hydroxy-4-methylpentyl)oxy)-2-methylphenyl)pyridin-2-yl)-4H-1,2,4-triazole-3-carboxamide]	≤ 100
CCOCCOc1ccc(C)c(-c2ccnc(NC(=O)c3nnc(Cc4ccccc4)[nH]3)c2)c1 [Example 131, 5-benzyl-N-(4-(5-(2-ethoxyethoxy)-2-methylphenyl)pyridin-2-yl)-4H-1,2,4-triazole-3-carboxamide]	≤ 100
O=C(Nc1cc(-c2cc(OCCCCCO)ccc2C(F)(F)F)ccn1)c1nnc(CC2CCCC2)[nH]1 [Example 277, 5-(cyclopentylmethyl)-N-(4-(5-((5-hydroxypentyl)oxy)-2-(trifluoromethyl)phenyl)pyridin-2-yl)-4H-1,2,4-triazole-3-carboxamide]	≤ 100
Cc1ccc(OCCC2CCOCC2)cc1-c1cc(NC(=O)c2nnc(CC3CCCCC3)[nH]2)ncc1Cl [Example 252, N-(5-chloro-4-(2-methyl-5-(2-(tetrahydro-2H-pyran-4-yl)ethoxy)phenyl)pyridin-2-yl)-5-(cyclohexylmethyl)-4H-1,2,4-triazole-3-carboxamide]	≤ 100
Cc1ccc(OCCCC(C)(C)O)cc1-c1ccnc(NC(=O)c2nnc(Cc3ccc(F)cc3)[nH]2)c1 [Example 188, 5-(4-fluorobenzyl)-N-(4-(5-((4-hydroxy-4-methylpentyl)oxy)-2-methylphenyl)pyridin-2-yl)-4H-1,2,4-triazole-3-carboxamide]	≤ 100
O=C(Nc1cncc(-c2ccccc2Cl)c1)c1nnc(Cc2ccccc2)[nH]1 [Example 30, 5-benzyl-N-(5-(2-chlorophenyl)pyridin-3-yl)-4H-1,2,4-triazole-3-carboxamide]	> 10000
CCC(O)(CC)CCCOc1ccc(C(F)(F)F)c(-c2ccnc(NC(=O)c3nnc(Cc4ccccc4F)[nH]3)c2)c1 [Example 261, 5-(2-fluorobenzyl)-N-(4-(5-((4-ethyl-4-hydroxyhexyl)oxy)-2-(trifluoromethyl)phenyl)pyridin-2-yl)-4H-1,2,4-triazole-3-carboxamide]	≤ 100
CC(C)(O)CCCCOc1ccc(Cl)c(-c2cc(NC(=O)c3nnc(CC4CCCCC4)[nH]3)ncc2F)c1 [Example 502, N-(4-(2-chloro-5-((5-hydroxyl-5-methylhexyl)oxy)phenyl)-5-fluoropyridin-2-yl)-5-(cyclohexylmethyl)-4H-1,2,4-triazole-3-carboxamide]	≤ 100
Cc1cc(Cc2nnc(C(=O)Nc3cc(-c4cc(OCCCC(C)(C)O)ccc4Cl)ccn3)[nH]2)ccc1F [Example 345, N-(4-(2-chloro-5-((4-hydroxy-4-methylpentyl)oxy)phenyl)pyridin-2-yl)-5-(4-fluoro-3-methylbenzyl)-4H-1,2,4-triazole-3-carboxamide]	100 to 1000
Cc1ccc(OCCC2CCOCC2)cc1-c1ccnc(NC(=O)c2nnc(Cc3ccccc3F)[nH]2)c1 [Example 226, 5-(2-fluorobenzyl)-N-(4-(2-methyl-5-(2-(tetrahydro-2H-pyran-4-yl)ethoxy)phenyl)pyridin-2-yl)-4H-1,2,4-triazole-3-carboxamide]	≤ 100
Cc1ccc(OCCCC(C)(C)O)cc1-c1ccnc(NC(=O)c2nnc(Cc3cccc(C(F)(F)F)c3F)[nH]2)c1 [Example 210, 5-(2-fluoro-3-trifluoromethylbenzyl)-N-(4-(5-((4-hydroxy-4-methylpentyl)oxy)-2-methylphenyl)pyridin-2-yl)-4H-1,2,4-triazole-3-carboxamide]	100 to 1000
Cc1cc(Cl)ccc1-c1ccnc(NC(=O)c2nnc(Cc3ccccc3)[nH]2)c1 [Example 11, 5-benzyl-N-(4-(4-chloro-2-methylphenyl)pyridin-2-yl)-4H-1,2,4-triazole-3-carboxamide]	1000 to 10000
CC(C)(O)CCCOc1cc(F)c(Cl)c(-c2ccnc(NC(=O)c3nnc(Cc4ccccc4)[nH]3)c2)c1 [Example 407, 5-benzyl-N-(4-(2-chloro-3-fluoro-5-((4-hydroxy-4-methylpentyl)oxy)phenyl)pyridin-2-yl)-4H-1,2,4-triazole-3-carboxamide]	> 10000
COc1ccc(Cl)cc1-c1ccnc(NC(=O)c2nnc(Cc3ccccc3)[nH]2)c1 [Example 15, 5-benzyl-N-(4-(5-chloro-2-methoxyphenyl)pyridin-2-yl)-4H-1,2,4-triazole-3-carboxamide]	1000 to 10000
Cc1ccc(OCCCC(C)(C)O)cc1-c1ccnc(NC(=O)c2nnc(CCc3ccccc3)[nH]2)c1 [Example 182, N-(4-(5-((4-hydroxy-4-methylpentyl)oxy)-2-methylphenyl)pyridin-2-yl)-5-phenethyl-4H-1,2,4-triazole-3-carboxamide]	100 to 1000
CC(C)(O)CCCCOc1ccc(C(F)(F)F)c(-c2ccnc(NC(=O)c3nnc(Cc4ccccc4)[nH]3)c2)c1 [Example 268, 5-benzyl-N-(4-(5-((5-hydroxyl-5-methylhexyl)oxy)-2-(trifluoromethyl)phenyl)pyridin-2-yl)-4H-1,2,4-triazole-3-carboxamide]	≤ 100
CC(C)OCCOc1ccc(Cl)c(-c2ccnc(NC(=O)c3nnc(CC4CCCC4)[nH]3)c2)c1 [Example 389, N-(4-(2-chloro-5-(2-isopropoxyethoxy)phenyl)pyridin-2-yl)-5-(cyclopentylmethyl)-4H-1,2,4-triazole-3-carboxamide]	≤ 100
CC(C)(O)CCCCOc1ccc(C(F)(F)F)c(-c2ccnc(NC(=O)c3nnc(CC4CCCCC4)[nH]3)c2)c1 [Example 271, 5-(cyclohexylmethyl)-N-(4-(5-((5-hydroxyl-5-methylhexyl)oxy)-2-(trifluoromethyl)phenyl)pyridin-2-yl)-4H-1,2,4-triazole-3-carboxamide]	≤ 100
COc1ccccc1-c1ccnc(NC(=O)c2nnc(Cc3ccccc3)[nH]2)c1 [Example 3, 5-benzyl-N-(4-(2-methoxyphenyl)pyridin-2-yl)-4H-1,2,4-triazole-3-carboxamide]	1000 to 10000
CC(C)OCCOc1ccc(C(F)(F)F)c(-c2ccnc(NC(=O)c3nnc(CC4CCCCC4)[nH]3)c2)c1 [Example 290, 5-(cyclohexylmethyl)-N-(4-(5-(2-isopropoxyethoxy)-2-(trifluoromethyl)phenyl)pyridin-2-yl)-4H-1,2,4-triazole-3-carboxamide]	≤ 100
O=C(Nc1cc(-c2ccccc2OCCO)ccn1)c1nnc(Cc2ccccc2)[nH]1 [Example 124, 5-benzyl-N-(4-(2-(2-hydroxyethoxy)phenyl)pyridin-2-yl)-4H-1,2,4-triazole-3-carboxamide]	1000 to 10000
CC(C)(O)CCCCOc1ccc(C(F)(F)F)c(-c2ccnc(NC(=O)c3nnc(Cc4ccccc4F)[nH]3)c2)c1 [Example 269, 5-(2-fluorobenzyl)-N-(4-(5-((5-hydroxyl-5-methylhexyl)oxy)-2-(trifluoromethyl)phenyl)pyridin-2-yl)-4H-1,2,4-triazole-3-carboxamide]	≤ 100
Cc1ccc(OC2COC2)cc1-c1ccnc(NC(=O)c2nnc(Cc3ccccc3)[nH]2)c1 [Example 86, 5-benzyl-N-(4-(2-methyl-5-(oxetan-3-yloxy)phenyl)pyridin-2-yl)-4H-1,2,4-triazole-3-carboxamide]	≤ 100
